Patent US20150119792A1, “LIGHT DEGRADABLE DRUG DELIVERY SYSTEM FOR OCULAR THERAPY” (priority 2012, published 2015)

Experiments:
Raw 264.7 cells = experiment: Light-triggered release of FDA from nanoparticles, cell fluorescence (imaging, plate reader); assay type: cell-based; conditions: UV irradiation, free FDA
Procedure: The dye selected for these studies was Fluorescein Diacetate (FDA), which is an ester of fluorescein. […] Nanoparticles containing FDA were formulated through an inverse emulsion/solvent evaporation process. […] The resulting solution was added to a larger volume of 1% solution of polyvinyl alcohol (PVA) and probe sonicated to form the emulsion. The organic solvent was then evaporated under vacuum, and PVA removed by tangential flow ultrafiltration. The resulting solution was then freeze-dried with mannitol as cryoprotectant. The resulting particles were characterized by dynamic light scattering (DLS) and scanning electron microscopy (SEM). The encapsulation efficiency was evaluated by liquid-liquid extraction of FDA from particles and fluorescence measurements. […] As a more quantitative assay, we measured the amount of fluorescence of the cells using a plate reader (same cell count in each well). […] FIG. 4 is a bar graph showing the measured fluorescence for irradiated and non-irradiated Raw 264.7 cells. The cells in irradiated wells show higher fluorescence due to triggered release of payload (dark bars) as compared to cells in non-irradiated wells (light bars). […] We found an 18-fold increase in fluorescence upon irradiation as compared to the non-irradiated control in Raw 264.7 macrophage cell line, as well as a 3-fold increase upon irradiation in retinal cell line.

[1] = Visual and microscopic inspection of the eye after intra-vitreous injection; assay type: in vivo, Sprague-Dawley albino rats; conditions: compared with PBS buffer (left eye)
Procedure: WO2011/038117. Initial in vivo testing on a rat model (Sprague-Dawley albino rats) was performed to determine the biocompatibility of the empty polymer particles without encapsulated cargo. This involved intra-vitreous injection of different concentrations of the light-degradable particles (“NP low” and “NP high” test categories in FIG. 2A) as well as different concentrations of nanoparticles composed of a known biocompatible material (PLGA). In each animal, the test material was injected into the right eye while a phosphate buffered solution (PBS) was injected into the left eye as a negative control. Additionally, animals were administered nanoparticle solutions that had previously been irradiated with UV light (˜350 nm) to determine any deleterious effects of the degradation byproducts (“NP low+UV” and “NP high+UV”.) Lipopolysaccharide (LPS) was injected in another group as a positive control as it is known to cause inflammation. […] FIG. 2A illustrates the intra-ocular pressure (IOP) data for these tests, with each group of bars, with the bars proceeding from left to right in the figure, corresponding to pre-operative IOP, drug (nanoparticle) day 1, PBS at day 1 after injection, drug (nanoparticle) day 4 after injection, PBS day 4, drug day 5, PBS day 5 etc. up to day 7 after injection. […] Second, the intra-ocular pressure was measured daily. […]

Compound | bleaching of FDA by irradiation (Raw 264.7 cells) | visual and microscopic inspection of the eye [1]
CC(=O)Oc1ccc2c(c1)Oc1cc(OC(C)=O)ccc1C21OC(=O)c2ccccc21 [FDA, Fluorescein Diacetate] | does not cause significant bleaching | –
Lipopolysaccharide [LPS] | – | caused tearing
